Read-outs that look alike come from different tables or passages of the source.
Tests used:
[1] = test system: genotype A, "Long" strain RSV; assay: RSV-A assay (CPE protection in Hep-2 cells, ATPlite readout); format: cell-based, Human respiratory syncytial virus (HRSV); conditions: genotype A “Long” strain RSV, MOI 0.1, CPE protection, read-out: Human RSV-A (“Long”)
Procedure, shortened: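 Protection from RSV-induced cytopathic effect measured by ATP content (ATPlite) after 5-day culture. Infection used genotype A Long virus at MOI 0.1 on 8,000 Hep-2 cells per well, with compound serially diluted 2-fold; values are EC50.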

[2] = test system: recombinant HMPV CAN97-83 containing eGFP (MPV-GFP1); assay: HMPV antiviral assay Method-A (MPV-GFP1 eGFP fluorescence in Vero E6 cells); format: cell-based, Human metapneumovirus (HMPV); conditions: read-out: HMPV EC50
Procedure, shortened: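 Vero E6 cells in serum-free OptiMEM with 0.5 μg/mL TPCK-trypsin were infected with eGFP-expressing HMPV CAN97-83 at MOI 0.05, with 8-point twofold dilutions from 8 or 2 μM (0.5% DMSO). After 5 days at 32° C, eGFP fluorescence gave % inhibition versus infected untreated wells. EC50 came from four-parameter logistic fits.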

[3] = human respiratory syncytial virus
[4] = human metapneumovirus, Vero C1008, 120 h

SMILES	EC50 [1, 3]	EC50 [2, 4]	EC50 [1]	EC50 ([2]; Method-A, MPV-GFP1 in Vero E6 cells, eGFP fluorescence after 5 days)
COc1ccc(C(=O)NC[C@](O)(c2cc3c(c(-c4ccc(F)cc4)n2)OC[C@]3(C)C(N)=O)C(F)(F)F)cc1Nc1nccnn1 [Example 112]	< 200 nM	> 500 nM	–	–
Cc1ccc2cc(C(=O)NC[C@](O)(c3cc4c(c(-c5ccc(F)cc5)n3)OC[C@]4(C)C(N)=O)C(F)(F)F)cc(OC(F)F)c2n1 [Example 327]	< 200 nM	> 500 nM	–	–
C[C@]1(C(N)=O)COc2c1cc([C@@](O)(CNC(=O)c1ccc3nc(NC(=O)CN)sc3c1)C(F)(F)F)nc2-c1ccc(F)cc1 [Example 152]	< 200 nM	> 500 nM	–	–
CCn1cc2cc(C(=O)NC[C@](O)(c3cc4c(c(-c5ccc(F)cc5)n3)OC[C@]4(C)C(N)=O)C(F)(F)F)ccc2n1 [Example 168]	< 200 nM	< 500 nM	–	–
COc1cc(C(=O)NC[C@](O)(c2cc3c(c(-c4ccc(F)cc4)n2)OC[C@]3(C)C(N)=O)C(F)(F)F)cc2cc[nH]c12 [Example 200]	< 200 nM	> 500 nM	–	–
C[C@]1(C(N)=O)COc2c1cc([C@@](O)(CNC(=O)c1cc(Cl)c3ncc(C4CC4)cc3c1)C(F)(F)F)nc2-c1ccc(F)cc1 [Example 72]	< 200 nM	< 500 nM	–	–
C[C@]1(C(N)=O)COc2c1cc([C@@](O)(CNC(=O)c1cc(NC(=O)NC3CC3)c3ncc(Cl)cc3c1)C(F)(F)F)nc2-c1ccc(F)cc1 [Example 218]	< 200 nM	< 500 nM	–	–
COc1cc(C(=O)NC[C@](O)(c2cc3c(c(-c4ccc(F)cc4)n2)OC[C@]3(C)C(N)=O)C(F)(F)F)cc2cn(C3CC3)nc12 [Example 24]	< 200 nM	< 500 nM	–	–
Cc1cn2cc(C(=O)NC[C@](O)(c3cc4c(c(-c5ccc(F)cc5)n3)OC[C@]4(C)C(N)=O)C3CC3)ccc2n1 [Example 52]	< 200 nM	< 500 nM	–	–
COc1cc(C(=O)NC[C@](O)(c2cc3c(c(-c4ccc(F)cc4)n2)OC[C@]3(C)C(N)=O)C(F)(F)F)cc2nc(C3CC3)[nH]c12 [Example 95]	< 200 nM	> 500 nM	–	–
C[C@]1(C(N)=O)COc2c1cc([C@@](O)(CNC(=O)c1cc(F)c3nc(C4CC4)cn3c1)C(F)(F)F)nc2-c1ccc(F)c(Cl)c1 [Example 58]	< 200 nM	< 500 nM	–	–
C[C@]1(C(N)=O)COc2c1cc([C@@](O)(CNC(=O)c1ccc3c(c1)CN(C1CC1)C3=O)C(F)(F)F)nc2-c1ccc(F)cc1 [Example 34]	< 200 nM	> 500 nM	–	–
CC1(C(N)=O)COc2c1cc(C(O)(CNC(=O)c1cc(OCC(F)F)n3nc(C4CC4)cc3c1)C(F)(F)F)nc2-c1ccc(F)cc1 (stereo not shown) [Example 68]	–	–	< 200 nM	< 500 nM
Cc1cnc2c(Cl)cc(C(=O)NC[C@](O)(c3cc4c(c(-c5ccc(F)cc5)n3)OC[C@]4(C)C(N)=O)C(F)(F)F)cc2c1 [Example 70]	< 200 nM	< 500 nM	–	–
C[C@]1(C(N)=O)COc2c1cc([C@@](O)(CNC(=O)c1ccc(OC[C@H](O)C(F)(F)F)c(OC3CC3)c1)C(F)(F)F)nc2-c1ccc(F)cc1 [Example 135]	< 200 nM	> 500 nM	–	–
CCc1cc(C(=O)NC[C@](O)(c2cc3c(c(-c4ccc(F)cc4)n2)OC[C@]3(C)C(N)=O)C(F)(F)F)cc2cn[nH]c12 [Example 102]	< 200 nM	< 500 nM	–	–
COc1cc(C(=O)NC[C@](O)(c2cc3c(c(-c4ccc(F)cc4)n2)OC[C@]3(C)C(N)=O)C(F)(F)F)cc2cc(Cl)c(C)nc12 [Example 82]	< 200 nM	< 500 nM	–	–
C[C@]1(C(N)=O)COc2c1cc([C@@](O)(CNC(=O)c1cc(C(F)(F)F)c3[nH]ncc3c1)C(F)(F)F)nc2-c1ccc(F)cc1 [Example 105]	< 200 nM	> 500 nM	–	–
Cc1cnc2c(NC(=O)N3CCC3)cc(C(=O)NC[C@](O)(c3cc4c(c(-c5ccc(F)cc5)n3)OC[C@]4(C)C(N)=O)C(F)(F)F)cc2c1 [Example 221]	< 200 nM	> 500 nM	–	–
C[C@@H](N)C(=O)Nc1nc2ccc(C(=O)NC[C@](O)(c3cc4c(c(-c5ccc(F)cc5)n3)OC[C@]4(C)C(N)=O)C(F)(F)F)cc2s1 [Example 154]	< 200 nM	> 500 nM	–	–
